In ChEMBL document CHEMBL1130371, “3-Substituted-4-hydroxy-7-chromanylacetic acid derivatives as antagonists of the leukotriene B4 (LTB4) receptor” (Bioorg Med Chem Lett, 1997) one finds IC50 data, which are given here for 43 compounds.

Experiment [1] concerns the target Leukotriene B4 receptor (Cavia porcellus). Kind of experiment: Inhibition of leukotriene B4 (LTB4) binding to guinea pig spleen.
The next experiment concerns the target Leukotriene B4 receptor (Homo sapiens, UniProt Q9NPC1+Q15722). Kind of experiment: Inhibition of LTB4 receptor induced chemotaxis of isolated human neutrophils. The class given is functional.
The species named for experiment [2] is Homo sapiens. Description: Antagonistic activity was evaluated against LT D4 on human neutrophils. Format: functional.
The species entered for experiment [3] is Homo sapiens. Kind of experiment: Antagonistic activity was evaluated against LT B4 on human neutrophils. Format: functional.
Experiment [4] deals with Leukotriene B4 receptor (Cavia porcellus). Description: Compound was evaluated for the inhibition of Leukotriene B4 (LTB4) receptor binding to guinea pig spleen derived receptor (GPS); IA means inactive.
For experiment [5], the species on record is Homo sapiens. Kind of experiment: Compound was evaluated for the inhibition of LTB4 receptor -induced chemotaxis of isolated human neutrophils; IA means inactive. Format: functional.

In general, IC50 refers to the concentration at which inhibition is half-maximal. A lower IC50 goes with greater potency in that assay.

As for `O=C(O)C1(c2ccc3c(c2)OC[C@H](Cc2ccccc2)[C@H]3O)CCCC1` (stereo in doubt; 11), the IC50 came out at 0.32 µM in experiment [1] and 0.16 µM on Leukotriene B4 receptor.

Consider `O=C(O)C1(c2ccc3c(c2)OC[C@H](Cc2ccccc2)[C@H]3O)CCCCC1` (stereo in doubt; 16), for which the half-inhibitory concentration (IC50) stood at 0.25 µM in experiment [1] and 0.17 µM on Leukotriene B4 receptor.

Regarding `O=C(O)C1(c2ccc3c(c2)OC[C@H](Cc2ccccc2)[C@H]3O)CCCC1` (stereo in doubt), the half-maximal inhibitory concentration (IC50) in experiment [1] was 3.4 µM; against Leukotriene B4 receptor, 1.1 µM.

For `O=C(O)C1(c2ccc3c(c2)OC[C@H](Cc2ccc(F)cc2F)[C@H]3O)CCCC1`, the IC50 in experiment [1] was found to be 2 µM; against Leukotriene B4 receptor it was 1 µM.

On to `CC(C(=O)O)c1ccc2c(c1)OC[C@H](Cc1ccccc1)[C@H]2O` (stereo partly drawn), for which the IC50 in the experiment listed under Homo sapiens [2] is greater than 100 µM; in the experiment filed under Homo sapiens [3], 0.79 µM; in experiment [1], 13 µM; against Leukotriene B4 receptor, 16.4 µM.

In the case of `O=C(O)C1(c2ccc3c(c2)OC[C@H](Cc2ccccc2)[C@H]3O)CCCC1` (stereo in doubt; 12), the IC50 in experiment [1] was determined as 0.42 µM; against Leukotriene B4 receptor, 0.078 µM.

With `CCC(CC)(C(=O)O)c1ccc2c(c1)OC[C@H](Cc1ccccc1)[C@H]2O`, the half-maximal inhibitory concentration (IC50) in experiment [1] was found to be 0.29 µM; against Leukotriene B4 receptor it was 0.17 µM.

Take `CC(C)(C(=O)O)c1ccc2c(c1)OC[C@H](CC1CCCCC1)[C@H]2O`: the figures for the half-inhibitory concentration (IC50) (in experiment [1]; on Leukotriene B4 receptor) were 34 µM and 20 µM, respectively.

Turning to `O=C(O)C1(c2ccc3c(c2)OC[C@H](CCc2ccc(-c4ccccc4)cc2)[C@H]3O)CCCC1`, the results for the IC50 (in experiment [1]; on Leukotriene B4 receptor) were 3.2 µM and 5.8 µM, respectively.

In the case of `O=C(O)C1(c2ccc3c(c2)OC[C@H](Cc2ccc(C(F)(F)F)cc2)[C@H]3O)CCCC1`, the results for the IC50 (in experiment [1]; on Leukotriene B4 receptor) were 12 µM and 6 µM, respectively.

For the compound `O=C(O)C1(c2ccc3c(c2)OC[C@H](Cc2ccccc2)[C@H]3O)CCCCC1` (stereo in doubt; 14), the half-maximal inhibitory concentration (IC50) in experiment [1] worked out at 0.2 µM; on Leukotriene B4 receptor, 0.38 µM.

Consider `O=C(O)C1(c2ccc3c(c2)OC[C@H](Cc2cccs2)[C@H]3O)CCCC1`, for which the IC50 in experiment [1] stood at 0.65 µM; at Leukotriene B4 receptor, 0.33 µM.

On to `O[C@H]1c2ccccc2OC[C@@H]1Cc1ccccc1`, for which the IC50 in experiment [1] was 100 µM; on Leukotriene B4 receptor, greater than 50 µM.

`COc1cccc(C[C@H]2COc3cc(C(C)C(=O)O)ccc3[C@@H]2O)c1` (stereo partly drawn): the IC50 in experiment [1] came to 53 µM; against Leukotriene B4 receptor, 12.2 µM.

`O[C@H]1c2ccc(C3(C4N=NN=N4)CCCC3)cc2OC[C@@H]1C(c1ccccc1)C1CCCCC1` (stereo partly drawn): the IC50 in experiment [1] stood at 0.35 µM; against Leukotriene B4 receptor it was 1.5 µM.

`COc1ccc(C[C@H]2COc3cc(C(C)C(=O)O)ccc3[C@@H]2O)cc1` (stereo partly drawn): the IC50 in experiment [1] was determined as 12 µM; against Leukotriene B4 receptor, 18.5 µM.

Consider `CC(C)(C(=O)N1CCCC1)c1ccc2c(c1)OC[C@H](Cc1ccccc1)[C@H]2O`, for which the values for the IC50 (in experiment [1]; against Leukotriene B4 receptor) were 40 µM and 1.7 µM, respectively.

For `O=C(O)CCc1ccc2c(c1)OC[C@H](Cc1ccccc1)[C@H]2O`, the IC50 in experiment [1] was determined as 12 µM; on Leukotriene B4 receptor, 16 µM.

In the case of `CC(C(=O)O)c1ccc2c(c1)[C@H](O)[C@@H](Cc1ccccc1)CO2` (stereo partly drawn), the IC50 entry (in experiment [4]; in the experiment filed under Homo sapiens [5]) was “Not Active” each time.

In the case of `OCCc1ccc2c(c1)OC[C@H](Cc1ccccc1)[C@H]2O`, the IC50 in experiment [1] is greater than 100 µM; against Leukotriene B4 receptor it was greater than 50 µM.

As for `O=C(O)C1(c2ccc3c(c2)OC[C@H](Cc2ccccc2)[C@H]3O)CCC1`, the IC50 came out at 2.7 µM in experiment [1] and 14 µM against Leukotriene B4 receptor.

On to `CC(C)(C(=O)O)c1ccc2c(c1)OC[C@H](Cc1cccc(F)c1)[C@H]2O`, for which the IC50 in experiment [1] was 6 µM; at Leukotriene B4 receptor it was 9.4 µM.

As for `CC(C)(C(=O)O)c1ccc2c(c1)OC[C@H](Cc1ccccc1)[C@H]2O` (stereo in doubt), the 50% inhibitory concentration (IC50) was 40 µM in experiment [1] and 12.5 µM on Leukotriene B4 receptor.

As for `O=C(O)c1ccc2c(c1)OC[C@H](Cc1ccccc1)[C@H]2O`, the figures for the concentration for half-maximal inhibition (IC50) (in experiment [1]; on Leukotriene B4 receptor) were 20 µM and greater than 100 µM, respectively.

Consider `O=C(O)C1(c2ccc3c(c2)OC[C@H](Sc2ccccc2)[C@H]3O)CCCC1`, for which the concentration for half-maximal inhibition (IC50) came to 0.56 µM in experiment [1] and 0.5 µM on Leukotriene B4 receptor.

For the compound `O=C(O)C1(c2ccc3c(c2)OC[C@H](Cc2ccc4ccccc4n2)[C@H]3O)CCCC1`, the results for the IC50 (in experiment [1]; on Leukotriene B4 receptor) were 8.8 µM and greater than 50 µM, respectively.

For `O=C(O)C1(c2ccc3c(c2)OC[C@H](C(c2ccccc2)c2ccccc2)[C@H]3O)CCCC1`, the IC50 in experiment [1] was determined as 5.4 µM; at Leukotriene B4 receptor, 10 µM.

With `CC(C)c1ccc2c(c1)OC[C@H](Cc1ccccc1)[C@H]2O`, the IC50 in experiment [1] came out at 100 µM; at Leukotriene B4 receptor, 7.2 µM.

For `CC(C)(C(=O)O)c1ccc2c(c1)OC[C@H](Cc1ccccc1)[C@H]2O` (stereo in doubt; 6), the half-inhibitory concentration (IC50) in experiment [1] was found to be 1.2 µM; on Leukotriene B4 receptor it was 2.4 µM.

As to `O=C(O)Cc1ccc2c(c1)OC[C@H](Cc1ccccc1)[C@H]2O` (stereo in doubt; 4), the IC50 was 25 µM in experiment [1] and 12 µM against Leukotriene B4 receptor.

On to `O=C(O)C1(c2ccc3c(c2)OC[C@H](Cc2ccccc2)[C@H]3O)CCCC1` (stereo in doubt; 13), for which the half-inhibitory concentration (IC50) in experiment [1] was 0.29 µM; on Leukotriene B4 receptor, 0.098 µM.

Turning to `O=C(O)Cc1ccc2c(c1)OC[C@H](Cc1ccccc1)[C@H]2O` (stereo in doubt; 5), the IC50 in experiment [1] was 30 µM; against Leukotriene B4 receptor, 34 µM.

`OCc1ccc2c(c1)OC[C@H](Cc1ccccc1)[C@H]2O`: the IC50 in experiment [1] is greater than 100 µM; at Leukotriene B4 receptor it was greater than 50 µM.

Take `CC(C)(C(=O)O)c1ccc2c(c1)OC[C@H](Cc1ccc(Cl)cc1)[C@H]2O`: the IC50 in experiment [1] turned out to be 4 µM; against Leukotriene B4 receptor, 5.4 µM.

On to `CC(C)(C(=O)O)c1ccc2c(c1)OC[C@H](Cc1ccc(F)cc1F)[C@H]2O`, for which the half-maximal inhibitory concentration (IC50) in experiment [1] came to 8 µM; on Leukotriene B4 receptor, 6.2 µM.

Regarding `O=C(O)C1(c2ccc3c(c2)OC[C@H](CCc2ccccc2)[C@H]3O)CCCC1`, the results for the concentration for half-maximal inhibition (IC50) (in experiment [1]; against Leukotriene B4 receptor) were 0.49 µM and 0.3 µM, respectively.

Regarding `CC(C)(C(=O)O)c1ccc2c(c1)OC[C@H](Cc1ccccc1)[C@H]2O` (stereo in doubt; 7), the IC50 worked out at 2.3 µM in experiment [1] and 5.7 µM at Leukotriene B4 receptor.

In the case of `O=C(O)C1(c2ccc3c(c2)OC[C@H](CCCc2ccccc2)[C@H]3O)CCCC1`, the IC50 came to 2.7 µM in experiment [1] and 4.2 µM against Leukotriene B4 receptor.

In the case of `O=C(O)C1(c2ccc3c(c2)OC[C@H](Cc2ccccc2)[C@H]3O)CCCCC1` (stereo in doubt; 15), the results for the concentration for half-maximal inhibition (IC50) (in experiment [1]; against Leukotriene B4 receptor) were 0.24 µM and 0.23 µM, respectively.

With `CC(C)(C(=O)O)c1ccc2c(c1)OC[C@H](Cc1ccccc1)C2`, the half-inhibitory concentration (IC50) turned out to be 17 µM in experiment [1] and 25 µM at Leukotriene B4 receptor.

For the compound `CC(C)(C(=O)O)c1ccc2c(c1)OC[C@H](Cc1ccccc1)[C@H]2O` (stereo in doubt; 8), the IC50 in experiment [1] came out at 1.3 µM; against Leukotriene B4 receptor it was 3.4 µM.

For the compound `CNC(=O)C(C)(C)c1ccc2c(c1)OC[C@H](Cc1ccccc1)[C@H]2O`, the IC50 in experiment [1] was greater than 100 µM; on Leukotriene B4 receptor, 1.5 µM.

`CC(C)(C(=O)O)c1ccc2c(c1)OC[C@H](Cc1ccccn1)[C@H]2O`: the results for the IC50 (in experiment [1]; against Leukotriene B4 receptor) were 8 µM and 2.6 µM, respectively.
